Source: patent publication US10471059B2, “Compositions and methods of using tyrosine kinase inhibitors” (YALE UNIVERSITY, priority 2015, dated 2019)

Columns and labels:
[1] = test system: PZR Y241 and Y263 phosphorylation; test: Shp2E76A-induced PZR tyrosyl phosphorylation in NIH 3T3 cells, immunoblot; format: cell-based; conditions: cells expressing activated Shp2 (Shp2-E76A)
[2] = test system: PZR Y241 and Y263 phosphorylation; test: Shp2 mutant-induced PZR tyrosyl phosphorylation in HEK-293 cells, immunoblot; format: cell-based; conditions: HEK-293 cells transfected with Shp2 mutants; 5 μM SU6656

Compound | concentration at which Shp2-E76A-induced PZR hyper tyrosyl phosphorylation was inhibited [1] [µM] | NS and NSML Shp2 mutant-induced PZR hypertyrosyl phosphorylation [2]
CC(C)(C)n1nc(-c2ccc(Cl)cc2)c2c(N)ncnc21 [PP2] | 5 | –
CN(C)S(=O)(=O)c1ccc2c(c1)/C(=C/c1cc3c([nH]1)CCCC3)C(=O)N2 [SU6656] | 1 | can be inhibited
